These results are taken from patent US20230149383A1, “QUINOLINE COMPOUNDS FOR TREATING LUNG, LIVER, AND KIDNEY DISEASES, DISORDERS, OR CONDITIONS” (Aldeyra Therapeutics, Inc., priority 2020, published 2023).

The subject of data set [1] is STAM mouse model (NASH/HCC). In words: STAM mouse model (NASH/HCC). The format is in vivo. The source says: The STAM™ model is a model that recapitulates the same disease progression as human NASH/HCC. In this model, male C57BL/6 mice aged two days are given a single dose of streptozotocin to reduce insulin secretory capacity. When the mice turn four weeks of age they start a high-fat diet feeding. This model has a background of late type 2 diabetes which progresses into fatty liver, NASH, fibrosis and consequently liver cancer (HCC). Compared to other NASH-HCC model mice, the disease progresses in a relatively short period of time, and liver cancer is developed in 100% of animals at 20 weeks of age. The model is widely used in NASH research, with more than 40 papers and 70 international conferences published using data from the STAM™ model so far. STAM™ model is able to reproduce many of the pathological features of human NASH. For example: ballooning degeneration of cells, a characteristic pathological feature of human NASH; burned-out NASH, in which lipid droplets decrease as fibrosis progresses; progression of fibrosis occurring around the central vein; a mild rise in ALT (a liver injury marker); increase in NASH markers such as CK-18; increase in human HCC markers such as glutamine synthase, glypican-3 and AFP have been observed.
In a STAM mouse model (NASH/HCC), animals at birth are given a low dose of STZ (200 ug) and then at 3 to 4 weeks these animals are fed a high fat diet. In the progression of the animal model, at 5 weeks fatty liver is evident, 7 weeks NASH is evident, 9 weeks fibrosis is evident, and at 10 weeks nodules are evident and necropsy is performed. In this study, three groups vehicle (0.5% methylcellulose) alone, BID (200 mg/kg in vehicle, BID=twice a day), and QID (200 mg/kg in vehicle, QID=[…]), dosing began at 4 weeks and continued to week ten of the animal model.

The nature of data set [2]: Genotoxicity studies. As for the experimental part:
I-1 plasma concentrations are projected to have reached at least 10 μM, exceeding reported levels of RASP in humans with inflammatory diseases. The data support the potential of I-1, and RASP inhibition in general, in treating inflammation and fibrosis.

Data set [3] has as its system human precision cut liver slices (PCLS). The data set is described as follows: Alcoholic liver injury model in precision-cut liver slices (PCLS). Type of data set: cell-based. From the text: Alcohol abuse results in liver injury, including accumulation of RASP and an increase in inflammation. It is known to cause abnormalities in liver structure and function, including fatty liver, apoptosis, necrosis, fibrosis, and cirrhosis. In order to investigate the utility of the quinoline compounds described herein for reduction of RASP and/or treating liver and associated inflammatory disorders, we employed a known in vitro culture model that employs precision-cut liver slices (PCLS) to measure alcohol-induced liver injury. For this experiment, we used a liver sample donated from a […] with fibrosis. This experiment may also be performed on rat PCLS (procedure provided below). The model is described, for example in Klassen, L. W. et al., Biochemical Pharmacology 76 (2008), 426-436. In this model, PCLS retains excellent viability as determined by lactate dehydrogenase and adenosine triphosphate (ATP) levels over a 96-h period of incubation. The major enzymes of ethanol detoxification (alcohol dehydrogenase, aldehyde dehydrogenase, and cytochrome P4502E1), remain active and PCLS readily metabolizes ethanol and produces acetaldehyde. […] These PCLS secrete albumin, and albumin secretion was decreased by ethanol treatment. All of these impairments are reversed following the addition of 4-methylpyrazole, which is an inhibitor of ethanol metabolism. Therefore, this model system appears to mimic the ethanol-induced changes in the liver that have been previously reported in human and animal studies, and appears to be a useful model for the study of alcoholic liver disease.
Materials and Methods. For human PCLS studies, slices were cut as described below and incubated with conditions below for 24, 48, or 72 hours. Media were changed daily. • Control Media • 25 mM Ethanol Media. • Control Media+10 μM compound I-1 (7 μl of the 5 mg/ml I-1 solution in 1.7 ml) • Ethanol Media+10 μM compound I-1
Incubation of slices with ethanol is performed as follows. Following pre-incubation with WE, slices are incubated with media only (control), media+25 mM ethanol (ethanol), media+25 mM ethanol+0.50 mM 4-methylpyrazole as an optional positive control (ethanol +4-MP), media+0.50 mM 4-methylpyrazole (control+4-MP), control media+test compound, or ethanol media+test compound. The addition of 4-MP may be used in these studies as it is a general inhibitor of ethanol metabolism. The slices are placed in the Dynamic Organ Culture incubator and cultured at 37 C for up to 96 h, and every 24 h the appropriate media is replenished. In order to determine the concentration of ethanol and acetaldehyde in the media, the supernatant is analyzed using headspace gas chromatography.
Viability assays are performed as follows. Slice viability is determined by measuring adenosine triphosphate (ATP) and lactate dehydrogenase (LDH) levels. For the ATP assay, slices are harvested at the appropriate times, placed into 70% ethanol/2 mM EDTA, flash frozen, and stored at −70 C until assayed. Samples are thawed on ice, sonicated, and diluted in 0.1 M Tris-HCl/2 mM EDTA prior to use in a standard ATP assay kit.
For LDH determination, supernatant is collected and frozen at −70 C. The slice is solubilized in WE containing 2% Triton X-100 and LDH determined using a cytotoxicity detection kit (LDH) (e.g., available from Roche Applied Science, Penzberg, Germany). The absorbance of the samples is measured at 490 nm. All protein concentrations from the slices are determined using a BCA protein assay kit. To calculate the % Cytotoxicity at subsequent 24 h time points, the LDH in the media is divided by the total LDH in the PCLS and multiplied by 100.
Triglyceride analysis is performed as follows. At indicated time points, supernatant is removed and slices are washed in PBS (pH 7.4). Slices are placed in PBS containing 0.5% Triton-X100, sonicated, and the equivalent of […] of protein assayed for triglycerides using the serum triglyceride kit. […]

The test system of data set [4] is delayed rectifier potassium current. The data set is described as follows: In vitro inhibition of the delayed rectifier potassium current. The format is cell-based.
Setting [5] is: 200 mg/kg in 0.5% methylcellulose, BID and QID groups, week 4 to 10.

Entries after “also recorded” stand apart in the source; their conditions may differ.

Consider `CC(C)(O)c1nc2ccccc2cc1N` [I-1], for which, in data set [1] (setting [5]), the hepatic fibrosis result is given as “significantly reduced; also recorded: significant reduction” and the hepatic triglycerides result is “significantly reduced; also recorded: significant reduction”. Also, in data set [1] (200 mg/kg in methylcellulose, BID and QID (FIG. 10: QD or BID), vs vehicle), the body weight gain entry was “statistically significant reduction”. The “potential for mutagenicity or clastogenicity” value in data set [2] was “no potential for mutagenicity or clastogenicity”. For the same compound, the risk of genotoxicity result in data set [2] (preclinical studies) is “low risk of genotoxicity”. For the same compound, in data set [3], the “overall effect on cellular stress and toxicity in response to ethanol” value is “acts as a chemoprotectant to reduce cellular stress and toxicity”. The triglyceride levels result in data set [3] (10 μM I-1 + 25 mM ethanol, 24, 48, 72 h) is given as “significantly decreased”. The acetaldehyde levels entry in data set [3] (10 μM I-1, 24, 48, 72 h) is given as “appear to be decreased”. In addition, the ATP levels entry in data set [3] (10 μM I-1, 24 and 48 hours) is “remain constant”. Moreover, in data set [3] (10 μM I-1, 72 hours), the ATP levels result is reported as “increase”. In addition, in data set [3] (ethanol treated + 10 μM I-1), the “cytotoxicity (LDH) levels” value is given as “continued to drop”. In addition, the “potential to inhibit the delayed rectifier potassium current” value in data set [4] was “very low potential”.
